Measured values reported in patent US20080040819A1, “Methods of identifying agents for treatment of schizophrenia and related disorders” (Wyeth, priority 2006, published 2008).
Where two headings read alike, the source gives them in different places.

Assays:
[1] = test system: GPR88 KO and WT mice; assay: Apomorphine-induced climbing and stereotypy; assay type: in vivo
Protocol: The GPR88 KO and WT mice were acclimated to a wire cage (cylindrical ½″×½″ mesh with the dimensions of 4½″ d×5½″ h) for at least 2 hours before testing to allow proper habituation. […] (+ present, − absent). Readings were repeated every 5 minutes during a 30-minute test session.
The behavioral assessment was conducted over three conditions in succession: (1) an evaluation of the response to a subcutaneous vehicle (0.25% TWEEN® 80) injection to establish a baseline; (2) followed by an evaluation of the response to a dose of 0.3 mg/kg subcutaneous apomorphine injection; (3) followed by an evaluation of the response to 1 mg/kg subcutaneous apomorphine injection. Behavioral observation began 5 minutes after each injection. Vehicle was given at T0 minutes with observational assessment from T5-T35 minutes and habituation followed from T35-T65 minutes.
At T65, the 0.3 mg/kg dose of apomorphine was administered. Behavioral observation for the 0.3 mg/kg dose of apomorphine was from T70-T100, followed by another habituation from T100-T130 minutes.
At T130 min, the 1.0 mg/kg dose of apomorphine was administered and then the mice were scored from T135-T165 min. For each subject, the climbing scores were totaled for each observational period (maximum=12 per animal). Stereotypy scores were also summed up (maximum=6 per animal). […] Males and females were analyzed separately.

[2] = test system: GPR88 KO and WT mice; assay: Antipsychotic block of apomorphine-induced climbing and stereotypy; assay type: in vivo
Protocol: Observation and scoring for climbing and stereotypy were performed as described in Example 6. […] Males and females were analyzed separately. […] For graphical representation, the data was normalized to the amount of climbing and stereotypy shown by the vehicle treated control group.

[3] = test system: GPR88 KO and WT mice; assay: Haloperidol-induced catalepsy; assay type: in vivo; conditions: 1 mg/kg i.p., 30-120 minutes, male and female mice
Protocol: Maintenance of this position was considered catalepsy. […] Males and females were analyzed separately.

[4] = test system: striatal dopamine; assay: In vivo striatal microdialysis; conditions: 3 mg/kg i.p., male and female GPR88 KO and WT mice, dialysates for 3 hours
Protocol: Chromatographic separations were performed using a Capcell PAK™, Strong Cation Exchange columns (5 μm UG80, 1.5×150 mm; Shiseido, Phenomenex, USA). The mobile phase comprised (mM) 13 Na2HPO4, 87 NaH2PO4, 0.1 EDTA and 20% methanol, was adjusted to pH 6 and delivered at 0.2 ml/minutes at 40° C.

[5] = test system: GPR88 KO and WT mice; assay: Amphetamine-stimulated locomotor hyperactivity; assay type: in vivo; conditions: 3 mg/kg i.p., 40-90 min
Protocol: The amphetamine-stimulated locomotor hyperactivity assay is another type of assay to model the neuropathological states in schizophrenia, similar to the hyperdopaminergia in the ventral striatum. To measure spontaneous activity and amphetamine-stimulated locomotor hyperactivity, the mice were individually placed in Opto-Veramax-3 monitor cages (Columbus Instruments, Columbus, Ohio) and allowed to habituate for 30 minutes with room light and white noise on. After habituation, each mouse was injected with amphetamine (AMPH, 3 mg/kg) in the intraperitoneum. During the first 30 minutes, the spontaneous activity was recorded every 10 minutes. After amphetamine administration, amphetamine-stimulated locomotor hyperactivity was measured every 10 minutes over a 60 minutes time span by the activity monitor. Accuscan Versamax and Versadat software (Columbus Instruments, Columbus, Ohio) were used to convert the infrared beam breaks into horizontal activity counts. […] Males and females were analyzed separately.

[6] = test system: GPR88 KO and WT mice; conditions: 0.54 mg/kg i.p. 30 minutes before testing, PPI averaged across 3 dB levels
Protocol: To detect potential phenotypic deficits in the GPR88 knockout mice, they were first evaluated for startle habituation. In brief, mice were tested using the SR-LAB (San Diego Instruments, San Diego, Calif.) system. Each system consists of a ventilated sound attenuated chamber containing a stabilimeter consisting of a Plexiglas cylinder (12.5 cm length, 3.5 cm diameter) mounted on a Plexiglas frame. Acoustic stimuli were delivered through a speaker mounted in the enclosure ceiling, that was 27 cm above the cylinder. Startle responses were transduced by a piezoelectric accelerometer mounted beneath the frame. Output signals were digitized and rectified as consecutive 1-millisecond (msec) readings (a total of 65 were recorded, and startle response was expressed as an averaged response across these samples) on a computer using the San Diego Instrument software. Mice were placed individually in the chamber for a 5-minute acclimation period at a background noise level of 64 dB.
Prepulse inhibition was measured immediately following the startle sensitivity test. […] Percentage prepulse inhibition was calculated as 100 minus the ratio of the average startle response observed at each prepulse+pulse trial relative to the pulse alone stimulus, times 100. The percentage prepulse at across dB levels was analyzed by repeated-measures ANOVA. […] Males and females were analyzed separately. […]

[7] = target: T1, striatal dopamine D2 receptors (Mus musculus, UniProt P61168); assay: [^3H]spiperone binding to striatal membrane preparations; design: species or system mice; conditions: pool of 10
T1 construct: from tissue; host or cells: mouse striatum (membrane preparation / homogenate)
Protocol: Striata from 10 mice (male and female, WT & GPR88 KO) were pooled and homogenized in a motor-driven POLYTRON™ homogenizer (Kinematica AG, Newark, N.J.) at setting six for 10 seconds in 3 mL per 100 mg of wet tissue in 50 mM Tris-HCl buffer, pH 7.4, containing 120 mM NaCl, 5 mM KCl, 1.5 mM CaCl2, 4 mM MgCl2, and 1 mM EDTA. […] The binding of each concentration of radioligand was determined in duplicate. Incubations were carried out at room temperature for 120 minutes. The final concentration of the membrane protein in each binding assay was approximately 70 μg/ml. Butaclamol (+), (10 μM), (Sigma-Aldrich, St. Louis, Mo.) was used to define the nonspecific binding. The incubations were terminated by rapid filtration using a Wallac Tomtec harvester (Waltham, Mass.) and buffer-presoaked glass fiber filter mats (GF/B, Whatman Inc. Florham Park, N.J.). […] The radioactivity of the filters was then counted in a Wallac 1205 scintillation counter (Perkin Elmer Life and Analytical Sciences).
The estimates of Bmax (the number of available binding receptors) and Kd (the dissociation constant) were calculated by fitting the specific binding data with nonlinear regression using GraphPad PRISM™ data analysis software (GraphPad Software, San Diego, Calif.).

[8] = test system: GPR88 KO and WT mice; assay: Phencyclidine-stimulated locomotor hyperactivity; assay type: in vivo
[9] = target: dopamine D2 receptors (Mus musculus, UniProt P61168); conditions: 1 mM dopamine, striatal membranes
Protocol: Briefly, striata were collected from the mice (9 GPR88 KO or WT) and frozen at 80° C. until use. The tissue was homogenized in 1:100 volume (wet weight/volume) of ice-cold K-HEPES buffer (20 mM, pH=7.6), containing 7 mM of MgCl2, 100 mM of NaCl, 1 mM of EDTA, and 1 mM of DTT (buffer A), and centrifuged at 45,000 g for 10 minutes at 4° C. The membrane pellet was resuspended in 100 volumes (w/v) of fresh buffer A and re-centrifuged under the same conditions.
The incubation was started by addition of [^35S]GTPγS (final concentration 0.5 nM) and proceeded for 90 minutes at 30° C. The assay was terminated by filtration through a filter plate (GF/B, Perkin Elmer Life and Analytical Sciences) with five washings of cold buffer A (350 μl). The filter plate was air-dried and the radioactivity content of the filters was counted in 25 μl scintillation cocktail MICROSCINT™ 20 (Perkin Elmer Life and Analytical Sciences) by a Perkin Elmer TopCount NXT scintillation counter.

[10] = GPR88 KO and WT female mice, 0.3 mg/kg haloperidol
[11] = male WT mice, 0.54 and 1.0 mg/kg haloperidol

T1 sequence (P61168 whole entry): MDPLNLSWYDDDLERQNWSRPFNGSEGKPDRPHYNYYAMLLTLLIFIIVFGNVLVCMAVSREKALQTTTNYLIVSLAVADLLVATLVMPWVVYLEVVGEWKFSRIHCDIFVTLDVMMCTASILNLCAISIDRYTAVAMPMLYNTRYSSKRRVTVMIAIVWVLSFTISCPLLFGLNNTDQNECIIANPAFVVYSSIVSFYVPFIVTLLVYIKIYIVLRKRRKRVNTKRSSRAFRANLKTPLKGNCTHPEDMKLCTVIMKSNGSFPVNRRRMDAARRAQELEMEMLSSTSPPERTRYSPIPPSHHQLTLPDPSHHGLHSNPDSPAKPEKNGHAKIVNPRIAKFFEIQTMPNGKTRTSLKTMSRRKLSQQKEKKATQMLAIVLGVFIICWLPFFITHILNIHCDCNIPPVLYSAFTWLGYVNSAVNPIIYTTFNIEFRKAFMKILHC
Sequence of dopamine D2 receptors (P61168 whole entry): as above

CN1CCc2cccc3c2[C@H]1Cc1ccc(O)c(O)c1-3 [apomorphine]
apomorphine-induced climbing scores, dose effect ([1]; female GPR88 KO and WT mice, 1 mg/kg s.c.): the most climbing | apomorphine-induced stereotypy scores, dose effect ([1]; male GPR88 KO and WT mice, 1 mg/kg s.c.): maximal stereotypy | apomorphine-induced climbing scores, dose effect ([1]; male GPR88 KO and WT mice, vehicle, 0.3 and 1 mg/kg s.c.): climbing increasing with the dose

O=C(CCCN1CCC(O)(c2ccc(Cl)cc2)CC1)c1ccc(F)cc1 [haloperidol]
block of apomorphine-induced climbing [2, 10]: full block of climbing | block of apomorphine-induced stereotypy [2, 10]: full block of stereotypy | minimal effective dose, apomorphine-induced climbing and stereotypy assay (summary) ([2]; GPR88 KO male mice): 0.54 mg/kg | minimal effective dose, apomorphine-induced climbing and stereotypy assay (summary) ([2]; WT male mice): < 0.3 mg/kg | block of apomorphine-induced climbing ([2]; male GPR88 KO mice, 1.0 mg/kg haloperidol): full block of climbing | block of apomorphine-induced climbing [2, 11]: full block of climbing | block of apomorphine-induced stereotypy [2, 11]: full block of stereotypy | catalepsy (percentage of maximum possible catalepsy), GPR88 KO versus WT [3]: equivalent levels of catalepsy

CC(N)Cc1ccccc1 (centres unmarked) [amphetamine]
striatal extracellular dopamine after amphetamine [4]: significant and equal increase in dopamine | locomotor activity after amphetamine administration ([5]; GPR88 KO male mice): significant increase in activity | locomotor activity after amphetamine administration ([5]; female mice): significant increase in activity

Cc1nc2n(c(=O)c1CCN1CCC(c3noc4cc(F)ccc34)CC1)CCCC2 [risperidone]
percentage prepulse inhibition (PPI), treatment versus vehicle ([6]; male GPR88 KO mice): increasing PPI over untreated | percentage prepulse inhibition (PPI), treatment versus vehicle ([6]; male WT mice): increasing PPI over untreated

O=C(CCCN1CCC2(CC1)C(=O)NCN2c1ccccc1)c1ccc(F)cc1 [[^3H]spiperone]
Bmax (number of available binding receptors) ([7]; striatal membranes of GPR88 KO mice): 1.83 pmol/mg | Bmax (number of available binding receptors) ([7]; striatal membranes of WT mice): 1.34 pmoles/mg protein

c1ccc(C2(N3CCCCC3)CCCCC2)cc1 [PCP, phencyclidine]
PCP-stimulated locomotor activity ([8]; female WT and GPR88 KO mice, 1.0 mg/kg): Neither of the genotypes responded | PCP-stimulated locomotor activity ([8]; female WT and GPR88 KO mice, 1.7 mg/kg or 3.0 mg/kg): increased locomotor activity | PCP-stimulated locomotor activity ([8]; male WT and GPR88 KO mice, highest dose 3 mg/kg i.p.): increased locomotor activity | PCP-stimulated locomotor activity ([8]; male WT and GPR88 KO mice, lower doses (1.0, 1.7 mg/kg)): Neither of the genotypes responded

NCCc1ccc(O)c(O)c1 [dopamine]
stimulation of [^35S]GTPγS binding in GPR88 KO mice relative to WT mice [9]: twice
